From PMC3545186 (Biochemical Pharmacology, 2013)
Where two headings read alike, the source gives them in different places. Numbered stars: 1 amine (or outer) side, 2 acyl side, 3 side chain; on linkers, the order of the positions; unused ones are H or OH. Bridge positions count the residues as written; N and C are the ends. Square brackets hold non-standard residues; d marks the D form. Peptide text beside a SMILES is read from it. I, II: the chains in the order shown. Actinocin(9to1) = Cc1c2oc3c(C)ccc(C(=O)[*:1])c3nc-2c(C(=O)[*:2])c(N)c1=O; NMeV = CN[C@H](C(=O)O)C(C)C; Sar = CNCC(=O)O

Assays:
MDCKII-ABCB1 cells = assay: Cellular efflux of Act D after 4 h uptake; format: in vitro ADME, canine; details: MDCKII-ABCB1, after 4 h with 0.1 μM Act D
MDCKII-WT cells = assay: Growth inhibition; format: cell-based, canine
[1] = format: in vivo, mice; details: 0.5 mg/kg i.v.; for Brain peak area / Kidney concentration / Liver concentration: per gram of tissue

Cc1c2oc3c(C)ccc(C(=O)N[C@@H]4C(=O)N[C@H](C(C)C)C(=O)N5CCC[C@H]5C(=O)N(C)CC(=O)N(C)[C@@H](C(C)C)C(=O)O[C@@H]4C)c3nc-2c(C(=O)N[C@@H]2C(=O)N[C@H](C(C)C)C(=O)N3CCC[C@H]3C(=O)N(C)CC(=O)N(C)[C@@H](C(C)C)C(=O)O[C@@H]2C)c(N)c1=O [Act D, actinomycin D] (I: T[dV]P[Sar][NMeV] / II: T[dV]P[Sar][NMeV]; ester I:1-I:C, II:1-II:C; linker I:N-II:N via Actinocin(9to1))
reduction in intracellular Act D over 2 h after drug removal (MDCKII-ABCB1 cells): 5.5 fold | increase in sensitivity to Act D with MK571 (MDCKII-WT cells; MK571 25 μM): 3 fold | reduction in GI50 with verapamil (MDCKII-WT cells; verapamil 1 μM, 72 h): 3 fold | higher brain AUC0–6 h in Abcb1a/1b−/− mice compared to WT [1]: 2.3 fold | higher brain AUC0–6 h in Abcc2−/− mice compared to WT [1]: 1.3 fold | Brain AUC0–6 h (peak area) ([1]; Abcb1a/1b−/− mice): 6802 pa/g h | Brain Cmax (peak area) ([1]; Abcb1a/1b−/− mice): 1420 ± 521 pa | Kidney AUC0–6 h ([1]; Abcb1a/1b−/− mice): 35,381 μg/L h | Kidney AUC0–∞ ([1]; Abcb1a/1b−/− mice): 46,701 μg/L h | Kidney Cmax ([1]; Abcb1a/1b−/− mice): 13,207 ± 1025 μg/L | Liver AUC0–6 h ([1]; Abcb1a/1b−/− mice): 4616 ng·h/mL | Liver AUC0–∞ ([1]; Abcb1a/1b−/− mice): 6594 ng·h/mL | Liver Cmax ([1]; Abcb1a/1b−/− mice): 2323 ± 239 ng/mL | Brain peak area ([1]; Abcb1a/1b−/− mice, 0.25 h): 1134 ± 635 pa | Kidney concentration ([1]; Abcb1a/1b−/− mice, 0.25 h): 13,207 ± 1025 μg/L | Liver concentration ([1]; Abcb1a/1b−/− mice, 0.25 h): 2323 ± 239 µg/L | Brain peak area ([1]; Abcb1a/1b−/− mice, 0.5 h): 1420 ± 521 pa | Kidney concentration ([1]; Abcb1a/1b−/− mice, 0.5 h): 13,163 ± 2521 μg/L | Liver concentration ([1]; Abcb1a/1b−/− mice, 0.5 h): 1367 ± 133 µg/L | Brain peak area ([1]; Abcb1a/1b−/− mice, 2 h): 912.7 ± 461 pa | Kidney concentration ([1]; Abcb1a/1b−/− mice, 2 h): 5327 ± 1257 µg/L | Liver concentration ([1]; Abcb1a/1b−/− mice, 2 h): 737 ± 172 µg/L | Brain peak area ([1]; Abcb1a/1b−/− mice, 6 h): 1383 ± 439 pa | Kidney concentration ([1]; Abcb1a/1b−/− mice, 6 h): 2957 ± 872 µg/L | Liver concentration ([1]; Abcb1a/1b−/− mice, 6 h): 407 ± 9 µg/L | Brain AUC0–6 h (peak area) ([1]; Abcc2−/− mice): 3785 pa/g h | Brain Cmax (peak area) ([1]; Abcc2−/− mice): 1039 ± 181 pa | Kidney AUC0–6 h ([1]; Abcc2−/− mice): 33,079 μg/L h | Kidney AUC0–∞ ([1]; Abcc2−/− mice): 48,799 μg/L h | Kidney Cmax ([1]; Abcc2−/− mice): 13,107 ± 2318 μg/L | Liver AUC0–6 h ([1]; Abcc2−/− mice): 4445 ng·h/mL | Liver AUC0–∞ ([1]; Abcc2−/− mice): 5516 ng·h/mL | Liver Cmax ([1]; Abcc2−/− mice): 1540 ± 356 ng/mL | Brain peak area ([1]; Abcc2−/− mice, 0.25 h): 972 ± 455 pa | Kidney concentration ([1]; Abcc2−/− mice, 0.25 h): 13,107 ± 2318 μg/L | Liver concentration ([1]; Abcc2−/− mice, 0.25 h): 1317 ± 302 µg/L | Brain peak area ([1]; Abcc2−/− mice, 0.5 h): 1039 ± 181 pa | Kidney concentration ([1]; Abcc2−/− mice, 0.5 h): 10,593 ± 944 μg/L | Liver concentration ([1]; Abcc2−/− mice, 0.5 h): 1540 ± 356 µg/L | Brain peak area ([1]; Abcc2−/− mice, 2 h): 424.3 ± 120 pa | Kidney concentration ([1]; Abcc2−/− mice, 2 h): 4987 ± 161 µg/L | Liver concentration ([1]; Abcc2−/− mice, 2 h): 787 ± 99 µg/L | Brain peak area ([1]; Abcc2−/− mice, 6 h): 733 ± 470 pa | Kidney concentration ([1]; Abcc2−/− mice, 6 h): 3410 ± 527 µg/L | Liver concentration ([1]; Abcc2−/− mice, 6 h): 303 ± 128 µg/L | Brain AUC0–6 h (peak area) ([1]; WT mice): 2943 pa/g h | Brain Cmax (peak area) ([1]; WT mice): 1071 ± 217 pa | Kidney AUC0–6 h ([1]; WT mice): 29,552 μg/L h | Kidney AUC0–∞ ([1]; WT mice): 35,754 μg/L h | Kidney Cmax ([1]; WT mice): 13,323 ± 3960 μg/L | Liver AUC0–6 h ([1]; WT mice): 4473 ng·h/mL | Liver AUC0–∞ ([1]; WT mice): 5387 ng·h/mL | Liver Cmax ([1]; WT mice): 1810 ± 155 ng/mL | Brain peak area ([1]; WT mice, 0.25 h): 1071 ± 217 pa | Kidney concentration ([1]; WT mice, 0.25 h): 13,323 ± 3960 μg/L | Liver concentration ([1]; WT mice, 0.25 h): 1810 ± 155 µg/L | Brain peak area ([1]; WT mice, 0.5 h): 775.3 ± 127 pa | Kidney concentration ([1]; WT mice, 0.5 h): 10,713 ± 2498 μg/L
